# Results reported in article PMC11672294, “The Antipsychotic Drug Aripiprazole Suppresses Colorectal Cancer by Targeting LAMP2a to Induce RNH1/miR‐99a/mTOR‐Mediated Autophagy and Apoptosis” (Advanced Science, 2024).
# Structures can show the parent of a compound that is named as a salt.
# Test system: HT29
# Details: 72 h, relative to DMSO, 10 µM, Relative cell viability (%)
# Description: To investigate the key signaling pathways and biological processes involved in CRC progression, we analyzed the National Center for Biotechnology Information Gene Expression Omnibus (GEO) dataset GSE115313, which included 42 CRC and paired normal tissues (Figure 1A). […] Next, we performed an Annexin V‐fluorescein isothiocyanate (FITC)/propidium iodide (PI) staining assay to determine the effect of aripiprazole on apoptosis in CRC cells. […] A) Principal component analysis of GEO dataset (GSE115313), which includes 42 CRC and paired normal tissues. B) Gene Ontology pathway analysis of the DEPs between CRC and paired normal tissues. […] D) Schematic diagram for identifying anticancer drugs amongst an US Food and Drug Administration‐approved small‐molecule library (616 compounds) using WST‐1 assay. E) HT29 cells were treated with the 616 drugs (10 µM) individually or with dimethyl sulfoxide for 72 h, followed by WST‐1 assay. […] J) Mice bearing HT29‐derived tumor xenografts were intragastrically administered with aripiprazole (10 or 20 mg kg^−1) once every 2 d, n = 6 mice/group. […] Bars, SD; ^* p < 0.05; ^** p < 0.01; ^*** p < 0.001; ns, no significant difference. The WST‐1 Cell Proliferation and Cytotoxicity Assay Kit (Beyotime Biotechnology, Shanghai, China) was used to measure cell viability, as described previously.^[ [10] ^] CRC cells were seeded into 96‐well plates and treated with different drug concentrations. Following that, WST‐1 was added to the plate and incubated with the cells for 2 h, at 37 °C. Absorbance at the wavelength of 450 nm was measured using an automated microplate spectrophotometer (BioTek Instruments, Winooski, VT, USA).
row,Structure (SMILES),Relative cell viability (%) [%]
1,N#CC[C@H](C1CCCC1)n1cc(-c2ncnc3[nH]ccc23)cn1 [S-Ruxolitinib (INCB018424)],98.54
2,CN1CCN(c2ccc3nc(-c4c(N)c5c(F)cccc5[nH]c4=O)[nH]c3c2)CC1 [Dovitinib (TKI258) Lactate],3.419

# Same assay, conditions: 72 h, relative to DMSO; 10 µM
row,Structure (SMILES),Relative cell viability (%) [%]
1,CN(N=O)C(=O)N[C@@H](C=O)[C@@H](O)[C@H](O)[C@H](O)CO [Streptozotocin (STZ)],74.3
2,CC(C)(CO)[C@@H](O)C(=O)NCCCO [D panthenol],121.4
3,NC(=O)c1cn(Cc2c(F)cccc2F)nn1 [Rufinamide],91.43
4,Fc1ccc(C(c2ccc(F)cc2)N2CCN(C/C=C/c3ccccc3)CC2)cc1 [Flunarizine 2HCl],73.29
5,C[C@]12C=CC(=O)C=C1CC[C@H]1[C@@H]3C[C@@H](O)[C@](O)(C(=O)CO)[C@@]3(C)C[C@H](O)[C@@]12F [Triamcinolone],171.8
6,N=C(N)NC(=O)Cc1c(Cl)cccc1Cl [Guanfacine Hydrochloride],129.1
7,N#CC1(c2ccc(NC(=O)c3cccnc3NCc3ccncc3)cc2)CCCC1 [Apatinib],110.8
8,C[C@]12CCC(=O)C(O)=C1CC[C@@H]1[C@@H]2CC[C@]2(C)C(=O)CC[C@@H]12 [Formestane],110.8
9,C=CN1CCCC1=O [Povidone iodine],91.88
10,COc1ccccc1N1CCN(CC(O)COc2cccc3ccccc23)CC1 (centres unmarked) [Naftopidil],100.8
11,CC(=O)O[C@]1(C(C)=O)CC[C@H]2[C@@H]3C[C@H](C)C4=CC(=O)C=C[C@]4(C)[C@@]3(F)[C@@H](O)C[C@@]21C [Fluorometholone Acetate],86.67
12,CCCCCCOC(=O)NC(=N)c1ccc(NCc2nc3cc(C(=O)N(CCC(=O)OCC)c4ccccn4)ccc3n2C)cc1 [Dabigatran Etexilate],102
13,COc1ccc(C[C@H](N)C(=O)N[C@H]2[C@@H](O)[C@H](n3cnc4c(N(C)C)ncnc43)O[C@@H]2CO)cc1 [Puromycin 2HCl],0
14,Cc1cc(C)c2c(c1)[C@@H](N(Cc1cc(C(F)(F)F)cc(C(F)(F)F)c1)c1nnn(C)n1)CCCN2C[C@H]1CC[C@H](C(=O)O)CC1 [Evacetrapib (LY2484595)],40.29
15,CCN1CCC[C@H]1CNC(=O)c1cc(S(N)(=O)=O)ccc1OC [Levosulpiride],114.3
16,"Cn1cnc2c(F)c(Nc3ccc(Br)cc3F)c(C(=O)NOCCO)cc21 [MEK162 (ARRY-162, ARRY-438162)]",36.75
17,CCCCCCCCCCCCCCCC[n+]1ccccc1 [Cetylpyridinium Chloride],5.758
18,C=CC(=O)N1CCC[C@@H](n2nc(-c3ccc(Oc4ccccc4)cc3)c3c(N)ncnc32)C1 [Ibrutinib (PCI-32765)],53.4
19,CC1(C)S[C@@H]2[C@H](NC(=O)[C@H](NC(=O)N3CCN(S(C)(=O)=O)C3=O)c3ccccc3)C(=O)N2[C@H]1C(=O)O [Mezlocillin Sodium],90.303

row,Structure (SMILES),Relative cell viability (%) [%]
1,CN(C)[C@@H]1C(O)=C(C(N)=O)C(=O)[C@@]2(O)C(O)=C3C(=O)c4c(O)cccc4[C@@](C)(O)[C@H]3[C@H](O)[C@@H]12 [Oxytetracycline Dihydrate],170.4
2,CCCN(CCC)C(=O)C1=Cc2ccc(-c3ccc(C(=O)N4CCCC4)cc3)cc2N=C(N)C1 [Motolimod (VTX-2337)],31.62
3,NC(=O)NO [Hydroxyurea],70.34
4,CC(=O)OCC(=O)[C@@]12OC(C)(C)O[C@@H]1C[C@H]1[C@@H]3C[C@H](F)C4=CC(=O)C=C[C@]4(C)[C@@]3(F)[C@@H](O)C[C@@]12C [Fluocinonide],56.31
5,COC(=O)C1=CCCN(C)C1 [Arecoline],59.22
6,CC(C)n1c(/C=C/[C@@H](O)C[C@@H](O)CC(=O)O)c(-c2ccc(F)cc2)c2ccccc21 (racemic) [Fluvastatin Sodium],103.4
7,CCCCc1nc(Cl)c(CO)n1Cc1ccc(-c2ccccc2-c2nn[nH]n2)cc1 [Losartan Potassium (DuP 753)],88.32
8,COc1ccccc1OCC(O)COC(N)=O (centres unmarked) [Methocarbamol],46.19
9,Nc1nc2c(ncn2COCCO)c(=O)[nH]1 [Aciclovir],89.41
10,COC(=O)C1=C(C)NC(C)=C(C(=O)O[C@@H]2CCCN(Cc3ccccc3)C2)[C@@H]1c1cccc([N+](=O)[O-])c1 (racemic) [Benidipine HCl],75.78
11,CCCCCCCCOc1ccccc1C(=O)Nc1ccc(C(=O)OCC[N+](C)(CC)CC)cc1 [Otilonium Bromide],59.22
12,O=C(/C=C/C=C/c1ccc2c(c1)OCO2)N1CCCCC1 [Piperine],104.9
13,CC(C(=O)O)c1ccc(C(=O)c2cccs2)cc1 (centres unmarked) [Suprofen],93.22
14,COc1nc(N)nc2c1ncn2[C@@H]1O[C@H](CO)[C@@H](O)[C@@H]1O [Nelarabine],86.76
15,CN(C)C/C=C/C(=O)Nc1cc2c(Nc3ccc(F)c(Cl)c3)ncnc2cc1O[C@H]1CCOC1 [Afatinib (BIBW2992) Dimaleate],20.09
16,CC(C)[C@H](N)C(=O)OCCOCn1cnc2c(=O)[nH]c(N)nc21 [Valaciclovir HCl],85.59
17,N[C@@H]1CN(c2c(F)cc3c(=O)c(C(=O)O)cn([C@@H]4C[C@@H]4F)c3c2Cl)CC12CC2 [Sitafloxacin Hydrate],126.1
18,Cc1ccnc2c1NC(=O)c1cccnc1N2C1CC1 [Nevirapine],94.49
19,Cn1ncc(Cl)c1-c1cc(C(=O)N[C@H](CN)Cc2cccc(F)c2)sc1Cl [Afuresertib (GSK2110183)],13.68

row,Structure (SMILES),Relative cell viability (%) [%]
1,CCCC(CCC)C(=O)O[C@H]1C[C@H]2CC[C@@H](C1)[N+]2(C)C [Anisotropine Methylbromide],55.76
2,CC(NC(C)(C)C)C(=O)c1cccc(Cl)c1 (centres unmarked) [Amfebutamone HCl],104.9
3,O=C(O)c1ccccc1Nc1cccc(C(F)(F)F)c1 [Flufenamic acid],80.303
4,CCOC(=O)c1ncn2c1CN(C)C(=O)c1cc(F)ccc1-2 [Flumazenil],80.53
5,CC(=O)O[C@@]12CO[C@@H]1C[C@H](O)[C@@]1(C)C(=O)[C@H](O)C3=C(C)[C@@H](OC(=O)[C@H](O)[C@@H](NC(=O)OC(C)(C)C)c4ccccc4)C[C@@](O)([C@@H](OC(=O)c4ccccc4)[C@H]21)C3(C)C [Docetaxel Trihydrate],23.93
6,CO[C@H]1/C=C/O[C@@]2(C)Oc3c(C)c(O)c4c(O)c(c(/C=N/N5CCN(C)CC5)c(O)c4c3C2=O)NC(=O)/C(C)=C\C=C\[C@H](C)[C@H](O)[C@@H](C)[C@@H](O)[C@@H](C)[C@H](OC(C)=O)[C@@H]1C [Rifampin],76.69
7,Nc1nc(O)c2ncn(COC(CO)CO)c2n1 [Ganciclovir],103.4
8,CN(C)CCC=C1c2ccccc2C=Cc2ccccc21 [Cyclobenzaprine HCl],39.39
9,CO[C@H]1/C=C/O[C@@]2(C)Oc3c(C)c(O)c4c(O)c(c5c(nc6cc(C)ccn65)c4c3C2=O)NC(=O)/C(C)=C\C=C\[C@H](C)[C@H](O)[C@@H](C)[C@@H](O)[C@@H](C)[C@H](OC(C)=O)[C@@H]1C [Rifaximin],94.49
10,C[N+](C)(C)CCO [Choline Chloride],79.39
11,[H]/N=C(\N/C(=N/[H])NCCCCCCNC(=N)NC(=N)Nc1ccc(Cl)cc1)Nc1ccc(Cl)cc1 [Chlorhexidine HCl],28.64
12,C[C@]12CCC(=O)C=C1[C@@H]1C[C@@H]1[C@H]1[C@@H]3[C@@H]4C[C@@H]4[C@@]4(CCC(=O)O4)[C@@]3(C)CC[C@@H]12 [Drospirenone],86.76
13,CCNC1(C(N)=O)CCN(c2ncnc3c2nc(-c2ccccc2Cl)n3-c2ccc(Cl)cc2)CC1 [Otenabant (CP-945598) HCl],70.09
14,CN1CC[C@H](c2c(O)cc(O)c3c(=O)cc(-c4ccccc4Cl)oc23)[C@H](O)C1 [Flavopiridol (Alvocidib)],8.879
15,CC(N)C12CC3CC(CC(C3)C1)C2 (centres unmarked) [Rimantadine],127.5
16,C=C[C@]1(C)C[C@@H](OC(=O)CSC(C)(C)CNC(=O)[C@H](N)C(C)C)[C@]2(C)[C@H](C)CC[C@]3(CCC(=O)[C@H]32)[C@@H](C)[C@@H]1O [Valnemulin HCl],68.48
17,CC1=C(C(=O)OC(C)C)C(c2cccc([N+](=O)[O-])c2)C(C(=O)OC2CN(C(c3ccccc3)c3ccccc3)C2)=C(N)N1 (centres unmarked) [Azelnidipine],73.79
18,O=C(O)c1cc(=O)c2ccccc2o1 [Chromocarb],81.21
19,CCN1CCCC1CNC(=O)c1cc(S(=O)(=O)CC)c(N)cc1OC (centres unmarked) [Amisulpride],77.41
